The record followed here is ChEMBL document CHEMBL5247631, “Ferroptosis-related small-molecule compounds in cancer therapy: Strategies and applications” (Eur J Med Chem, 2022).

Assay [1] deals with Calu-1. Put plainly: Induction of ferroptosis in human Calu-1 cells assessed as inhibition of (cystine-glutamate antiporter) system Xc- mediated cystine transport. It counts as functional, cell-based.
Assay [2] relates to HT-1080. Put plainly: Induction of ferroptosis in human HT-1080 cells assessed as inhibition of (cystine-glutamate antiporter) system Xc- mediated cystine transport. In kind it is functional, cell-based.
Assay [3] is described as follows: Induction of ferroptosis in human BJeLR cells assessed as inhibition of (cystine-glutamate antiporter) system Xc- mediated cystine transport. It counts as functional, cell-based. To be noted: bjelr cell.
Assay [4] is described as follows: Antiproliferative activity against BALB/C mouse TBCP-1 cells assessed as inhibition of cell proliferation incubated for 3 days by sulforhodamine B colorimetric assay. In kind it is functional, cell-based. To be noted: TBCP-1, 72 h.
The test system of assay [5] is SK-BR-3. Put plainly: Antiproliferative activity against human SK-BR-3 cells assessed as inhibition of cell proliferation incubated for 3 days by sulforhodamine B colorimetric assay. To be noted: SK-BR-3, 72 h. It counts as functional, cell-based.
Assay [6] concerns U-118-MG. Put plainly: Induction of ferroptosis in human U-118-MG cells assessed as GPX4 degradation. In kind it is functional, cell-based.
Assay [7] has as its system LN-229. Put plainly: Induction of ferroptosis in human LN-229 cells assessed as GPX4 degradation. In kind it is functional, cell-based.
The subject of assay [8] is SGC-7901. Put plainly: Anticancer activity against human SGC-7901 cells assessed as inhibition of cell viability incubated for 72 hrs by MTT assay. It counts as functional, cell-based. To be noted: SGC-7901, 72 h.
For assay [9], the system named is BGC-823. Put plainly: Anticancer activity against human BGC-823 cells assessed as inhibition of cell viability incubated for 72 hrs by MTT assay. It counts as functional, cell-based. To be noted: BGC-823, 72 h.
Assay [10] deals with NCI-N87. Put plainly: Anticancer activity against human NCI-N87 cells assessed as inhibition of cell viability incubated for 72 hrs by MTT assay. In kind it is functional, cell-based. To be noted: NCI-N87, 72 h.
In assay [11] the test system is MDA-MB-231. Put plainly: Cytotoxicity against human MDA-MB-231 cells assessed as inhibition of cell viability incubated for 24 hrs by sulforhodamine B assay. To be noted: MDA-MB-231, 24 h. It counts as functional, cell-based.
The test system of assay [12] is DBTRG-05MG. Put plainly: Cytotoxicity against human DBTRG-05MG cells assessed as inhibition of cell viability incubated for 24 hrs by sulforhodamine B assay. It counts as functional, cell-based.
For assay [13], the system named is ES-2. Put plainly: Anticancer activity against human ES2 cells assessed as reduction in cell viability incubated for 72 hrs by Alamar Blue viability assay. It counts as functional, cell-based. To be noted: ES-2, 72 h.
For assay [14], the system named is Glioblastoma cell line. Put plainly: Induction of ferroptosis in human primary glioblastoma cells assessed as decrease in GPX4 protein expression incubated for 48 hrs by Western blot analysis. It counts as functional, cell-based.
The nature of assay [15]: Induction of ferroptosis in human U-87 MG cells assessed as decrease in GPX4 protein expression incubated for 48 hrs by Western blot analysis. In kind it is functional, cell-based, U-87MG ATCC.
A short description of assay [16]: Cytotoxicity against human BJeLR cells overexpress oncogenic RAS assessed as induction of cell death. In kind it is functional, cell-based.
Assay [17] relates to HCT-116. Put plainly: Antiproliferative activity against human HCT-116 cells assessed as reduction in cell viability incubated for 48 hrs by MTT assay. It counts as functional, cell-based. To be noted: HCT-116, 48 h.
In assay [18] the test system is DLD-1. Put plainly: Antiproliferative activity against human DLD-1 cells assessed as reduction in cell viability incubated for 48 hrs by MTT assay. In kind it is functional, cell-based. To be noted: DLD-1, 48 h.
The test system of assay [19] is G-361. Put plainly: Antiproliferative activity against human G-361 cells harboring BRAF V600E mutant assessed as cell viability incubated for 72 hrs by crystal violet staining based assay. In kind it is functional. To be noted: G-361, 72 h.
Assay [20] has as its system SK-MEL-28. Put plainly: Antiproliferative activity against human SK-MEL-28 cells harboring BRAF V600E mutant assessed as cell viability incubated for 72 hrs by crystal violet staining based assay. In kind it is functional. To be noted: SK-MEL-28, 72 h.

On to `O=C(O)c1cc(/N=N/c2ccc(S(=O)(=O)Nc3ccccn3)cc2)ccc1O` [SULFASALAZINE], for which the half-maximal inhibitory concentration (IC50) in [1] came out at 460000 nM; in assay [2] it was 450000 nM.

With `CC(C)Oc1ccc(CN2CCNCC2)cc1-n1c(CN2CCN(C(=O)COc3ccc(Cl)cc3)CC2)nc2ccccc2c1=O`, the IC50 in assay [3] was 900 nM.

Consider `CCCC[S@@](=N)(=O)CC[C@@H](N)C(=O)O`, for which, in assay [3], the IC50 is less than 10000 nM.

For `CCOc1cc2ncc(C#N)c(Nc3ccc(OCc4ccccn4)c(Cl)c3)c2cc1NC(=O)/C=C/CN(C)C` [NERATINIB], the values for the IC50 in assay [4] and in assay [5] were 117 nM and 7.2 nM, respectively.

For the compound `O=S(=O)(NC1CCCCC1)c1ccc2c(c1)C(=NO)c1cc(S(=O)(=O)NC3CCCCC3)ccc1-2`, the IC50 is 2600 nM in assay [6] and 4200 nM in assay [7].

Turning to `Cc1coc2c1C(=O)C(=O)c1c-2ccc2c1CCCC2(C)C` [TANSHINONE IIA], the concentration for half-maximal inhibition (IC50) in [8] was determined as 250000 nM; in [9], 2800 nM; in [10] it was 3100 nM.

Turning to `CC(C)(C)c1ccc(S(=O)(=O)/C=C/C#N)cc1` [BAY-11-7085], the figures for the IC50 in assay [11] and in [12] were 4310 nM and 5530 nM, respectively.

Regarding `CCOc1ccccc1-n1c(C(C)N2CCN(C(=O)COc3ccc(Cl)cc3)CC2)nc2ccccc2c1=O` (stereo unspecified) [ERASTIN], the figures for the half-inhibitory concentration (IC50) in [3], in assay [1] and in assay [2] were 625 nM, 140 nM and 200 nM, respectively.

For the compound `CC1CC[C@@]23C[C@H](O)C(=O)[C@@]2(O)[C@]1(C)[C@H](OC(=O)CCl)C[C@@H](C1=CCn2c(=O)n(-c4ccccc4)c(=O)n2C1)[C@@H]3C` (stereo partly specified), the IC50 in assay [13] was 1600 nM.

For the compound `COc1ccc(/C=C/C(=O)C(CC2CCC2)C(=O)/C=C/c2ccc(OC)c(OC)c2)cc1OC` [ROSOLUTAMIDE], the values for the IC50 in assay [14] and in assay [15] were 2000 nM and less than 5000 nM, respectively.

For the compound `COC(=O)c1ccc([C@H]2c3[nH]c4ccccc4c3C[C@H](C(=O)OC)N2C(=O)CCl)cc1`, the IC50 in assay [3] and in [2] was 100 nM each time.

On to `O=S(=O)(c1ccc2c(c1)C(=NO)c1cc(S(=O)(=O)N3CCCCC3)ccc1-2)N1CCCCC1`, for which the 50% inhibitory concentration (IC50) in assay [16] is greater than 1000 nM.

For the compound `COc1ccc2oc(=N)c(C(N)=S)cc2c1`, the IC50 in assay [17] worked out at 44500 nM; in assay [18] it was 50200 nM.

As to `Cc1cc(-c2nc(-c3ccc(OC(F)(F)F)cc3)no2)nn1Cc1ccnc(N2CCN(C3CC3)CC2)c1`, the IC50 in assay [19] is 4800 nM; in assay [20] it was 2400 nM.
